These results are taken from patent publication US9603859B2, “Methods and products for increasing the rate of healing of tissue wounds” (BRIGHAM YOUNG UNIVERSITY, priority 2011, dated 2017).

Experiment [1] relates to Mixed-species biofilms of S. aureus and P. aeruginosa. Description: Mixed-species biofilm susceptibility, live/dead staining. The format is cell-based. Conditions: biofilms grown in collagen-coated plates for 24 hours.
The subject of experiment [2] is HaCaT migration. Description: HaCaT migration by ECIS (2D wound healing). In kind it is cell-based, human. How it is done: Standard microdilution methods were used to determine minimum inhibitory concentration (MIC) and minimum bactericidal concentration (MBC) of test agents (peptides and peptide-mimics) against drug resistant Staphylococcus. aureus (TCH1516) and Pseudomonas. aeruginosa (PAO1). […] Cytotoxicity of test agents to human immortalized keratinocytes (HaCaTs) was assessed using 3-[4,5-dimethylthiazol-2-yl]-2,5-diphenyl tetrazolium bromide (MTT). Promotion of HaCaT migration by test agents was tested using electric cell-substrate impedance sensing (ECIS®), which induced 2D wound healing. The ability of test agents to stimulate angiogenesis was evaluated using matrigel-induced tube formation of human vein endothelial cells (HUVECs).

For “LL-37: a human peptide and positive control (LLGDFFRKSKEKIGKEFKRIVQRIKDFLRNLVPRTES; Antibacterial peptide LL-37; UniProt P49913 134-170, looked up)”, the anti-biofilm activity result in experiment [1] is “showed anti-biofilm activity”. The “induction of wound healing” value in experiment [2] is reported as “induced wound healing”.
